Laboratory results as given in patent US10881718B2, “Bifunctional conjugate compositions and associated methods” (priority 2010, dated 2021).
Non-standard residues stand in square brackets, D forms with d. No end group written: not given here. Ahx = NCCCCCC(=O)O

Key:
[1] = set-up: species or system mice; conditions: mouse, in vivo, sc
Protocol: In Vivo Imaging. In vivo imaging was completed using the Maestro Imaging Suite. Animals were anesthetized using an isoflurane vaporizer and IR-820 labeled SAgA was injected s.c. at the base of the neck. After injection images were taken of the animal's top, left, bottom, and right side by rotating the animal in the exposure pane. The animal was imaged at defined time points over a 24 hour period to track the drainage and clearance of the SAgA from the injection site.

[2] = system: EAE model induced in SJL/J mice; test: Suppression of EAE by SAgAs and NP-Arrays (Example 1); type: in vivo; conditions: PLP conc. 100 nMol (100* for LABL-only arrays); s.c. days 4, 7, 10
Protocol: (§1) Induction of EAE and Therapeutic Study.
SJL/J (H-2s) female mice, 4-6 weeks old, were purchased from The Jackson Laboratory and housed under specified, pathogen-free conditions at The University of Kansas. All protocols involving live mice were approved by the Institutional Animal Care and Use Committee. Mice were immunized subcutaneously (s.c) with […] of PLP139-151 in a 0.2 mL emulsion composed of equal volumes of phosphate-buffered saline (PBS) and complete Freund's adjuvant (CFA) containing killed Mycobacterium tuberculosis strain H37RA (final concentration of 4 mg/mL; Difco). The PLP139-151/CFA was administered to regions above the shoulders and the flanks (total of four sites; 50 μL at each injection site). In addition, 200 ng/100 μL of pertussis toxin (List Biological Laboratories Inc.) was injected intraperitoneally (i.p.) on the day of immunization (day 0) and 2 days post-immunization. The mice received s.c. injections of each sample, equivalent to 100 nMol PLP/100 μL, on days 4, 7, 10. All NP samples were sonicated to disperse NPs before injection. For HA samples and controls, 100 μL of each vehicle was injected. […] Body weight was also measured daily.
Statistical differences were determined by comparing treated groups to the negative control (PBS) for clinical disease score and body weight. […]
The SAgAs and NP-Arrays were evaluated in an EAE model induced in SJL/J mice. […]

[3] = system: EAE model induced in SJL/J mice; test: Suppression of EAE by SAgAs: cell adhesion target and size (Example 2); type: in vivo; conditions: PLP conc. 100 nMol as printed in Table 11
Protocol: as §1
Four-6 week-old SJL/J female mice were immunized subcutaneously (s.c) with […] of PLP139-151 in a 0.2 mL emulsion composed of equal volumes of complete Freund's adjuvant (CFA) containing killed Mycobacterium tuberculosis strain H37RA (final concentration of 4 mg/mL; Difco) and phosphate-buffered saline (PBS) containing PLP. The PLP139-151/CFA emulsion was administered to regions above the shoulders and the flanks (total of four sites; 50 μL at each injection site). Additionally, 200 ng/100 μL of pertussis toxin (List Biological Laboratories Inc.) was injected intraperitoneally (i.p.) on the day of immunization (day 0) and 2 days post-immunization. […] One hundred μL of each vehicle was injected for all samples and controls. […] Body weight was also measured daily.
Statistical differences were determined by comparing treated groups to the negative control (PBS) for clinical disease score and body weight. […] For individual clinical day scores and cytokine measurements T test was employed. All analyses were performed using GraphPad Software (GraphPad Software Inc.).
Efficacy of SAgAs was evaluated in the EAE model induced in SJL/J mice. The study design is outlined in Table 11 below. Typically disease onset occurs at approximately day 8 and progresses to remission around day 20. […]

IFN-γ = test: Plasma cytokine analysis (ELISA) in EAE mice: IFN-γ; type: in vivo, SJL/J mice
Protocol: (§2) Blood samples were taken from each mouse via mandibular bleeds (˜100 uL) on days 0, 6, 12, 18, 25. To ensure there was enough sample to perform ELISA cytokine testing blood from, two mice within the same group was pooled at each time point for a total of four samples per group. Samples were collected in heparin-containing tubes and centrifuged to separate red blood cells. Plasma was collected and sent for cytokine analysis to the Cytokine Core Laboratory at the University of Maryland. The cytokines analyzed were IL-2, IL-4, IL-10, IL-17, TNF-α, and TGF-β.

TNF-α = test: Plasma cytokine analysis (ELISA) in EAE mice: TNF-α; type: in vivo, SJL/J mice; conditions: day 6; PBS 1.8 pg/mL
Protocol: as §2

IL-17 = test: Plasma cytokine analysis (ELISA) in EAE mice: IL-17; type: in vivo, SJL/J mice
Protocol: as §2

time of drainage/clearance of IR820-labeled material from the injection site [1]	Substance	Clinical Data Significance compared to PBS: % Weight loss [2]	Clinical Data Significance compared to PBS: Score [2]	Clinical Significance vs PBS: % Weight loss [3]	Clinical Significance vs PBS: Score ([3]; s.c. days 4, 7, 10)	reduction in peak expression of IFN-γ compared to PBS controls (IFN-γ; Day 6)	average plasma concentration of IFN-γ (IFN-γ; day 6, PBS 72 pg/mL)	plasma TNF-α peak concentration (TNF-α)	plasma IL-17 concentration (IL-17; day 6, PBS 23 pg/mL)	plasma IL-17 concentration (IL-17; day 12)
500 min	Hyaluronic acid [70 kDa HA]									
	HSLGKWLGHPDKF-AcGAcGAc-ITDGEATDSG (HSLGKWLGHPDKF[Ahx]G[Ahx]G[Ahx]ITDGEATDSG) [PLP-BPI]	Days 12-16, 18-22, p < 0.01	Day 12, p < 0.001	p < 0.05, Days 16	p < 0.05, Days 14 & 17	~40%	31 pg/mL	3.1 pg/mL	40 pg/mL	31 pg/mL
≤ 1440 min	Hyaluronic acid [HA]									
